This note sets out measurements from patent US20160346249A1 (priority 2012, published 2016).

Some results are limits rather than exact numbers.

The nature of data set [1]: Acute intravenous or oral rat bioavailability study. It counts as in vivo. Conditions: plasma, oral 10 mg/kg vs IV 5 mg/kg, both sexes, read-out: absolute oral bioavailability. As for the experimental part: Plasma samples were assayed using a validated LC/MS/MS assay.
Data set [2] can be described thus: Anesthetized dog intravenous cardiovascular study. The format is in vivo. As for the experimental part:
Whole blood samples were collected via a cannulated femoral vein at 0, 10, 20, and 29 minutes (timed from the start of each dose administration).
A separate group of 4 dogs was infused with vehicle only (30-60 mL over 90 minutes) for comparison. […] Whole blood samples were collected for determination of peak plasma concentrations (see Section 5.3.3) following infusion of each dose.

Data set [3] is described as follows: NADPH dependent metabolism, human liver microsomes. The format is in vitro ADME. As to the method: Bicifadine (10 μM) was used as the positive control and the formation of the lactam metabolites of bicifadine (M-12) was monitored.

As to `Clc1ccc([C@]23CNC[C@H]2C3)cc1Cl` [amitifadine, (+)-1-(3,4-dichlorophenyl)-3-azabicyclo[3.1.0]hexane], in data set [1], the bioavailability is at least 77%. Also, the “hemolysis in derived plasma fractions” value in data set [2] (IV infusion 2-29 mg/kg cumulative) was “Dose-related hemolysis was apparent”. Besides, in data set [2] (top dose), the “change in BF” value is −57%, the “change in HR” value is “+10%”, the “change in PR interval vs baseline” value is listed as −9% and the “change in QRS interval vs baseline” value is “+2%”. Also, in data set [2] (top dose), the “change in QTC interval vs baseline” value is “+2%” and the “change in femoral vascular resistance” value is “+354%”.

Consider `O=C1NCC2(c3ccc(Cl)c(Cl)c3)CC12` (stereo not shown) [EB-10101, 5-(3,4-dichloro-phenyl)-3-aza-bicyclo[3.1.0]hexan-2-one], for which the “amount formed with NADPH vs without NADPH” value in data set [3] (HLM, from EB-1010 10 μM) is on record as around 2 fold. In addition, the “share of lactam formed by enzymes other than CYPs or FMOs” value in data set [3] (human liver microsomes) is “about 50%”.
